Earlier results as cited in patent US20060020045A1, “Methods and compositions for treating inflammatory disorders of the gastrointestinal tract” (priority 2004, published 2006).

Test system: dimethylhydrazine-induced colon carcinogenesis
Details: effect only when present during carcinogen administration, not if given 17 weeks following the carcinogen

For `CC1=C(CC(=O)O)c2cc(F)ccc2/C1=C\c1ccc([S+](C)[O-])cc1` (stereo not shown) [sulindac], the tumor incidence is listed as “reduce tumor incidence only when present during carcinogen administration”.
